Measured values as given in ChEMBL document CHEMBL1201862, “PubChem BioAssay data set” (2004).
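Exposure lasted 48 hours, with cells grown in 96-well plates and compounds tested at five concentrations. GI50 = concentration required for 50% inhibition of growth.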 The source made the active and inactive calls. Cut-off read from the data, not from the text of the source: active = GI50 up to about 1.1 µM and inactive = higher.

Experiments:
Experiment in all cases: NCI tumour cell line growth inhibition, 48 h
[1] = tested on: SK-MEL-5
[2] = tested on: A549
[3] = tested on: NCI-H460
[4] = tested on: A498
[5] = tested on: RPMI-8226
[6] = tested on: OVCAR-5
[7] = tested on: SK-OV-3
[8] = tested on: CCRF-CEM
[9] = tested on: HT-29
[10] = tested on: NCI-H522
[11] = tested on: PC-3
[12] = tested on: RXF 393
[13] = tested on: UACC-62
[14] = tested on: OVCAR-4
[15] = tested on: SR
[16] = tested on: SF-539
[17] = tested on: HL-60
[18] = tested on: Malme-3M

| Compound | GI50 [1] | GI50 [2] | GI50 [3] | GI50 [4] | GI50 [5] | GI50 [6] | GI50 [7] | GI50 [8] | GI50 [9] | GI50 [10] | GI50 [11] | GI50 [12] | GI50 [13] | GI50 [14] | GI50 [15] | GI50 [16] | GI50 [17] | GI50 [18] |
| --- | --- | --- | --- | --- | --- | --- | --- | --- | --- | --- | --- | --- | --- | --- | --- | --- | --- | --- |
| COc1cc(-c2cc(O)c(-c3ccc4ccccc4n3)c(O)n2)cc(OC)c1OC | 15.1 µM (inactive) | 53.7 µM (inactive) | 31 µM (inactive) | > 61 µM (inactive) | > 50 µM (inactive) | > 59.6 µM (inactive) | 39.6 µM (inactive) | 10.3 µM (inactive) | 18.6 µM (inactive) | 13.2 µM (inactive) | 44.3 µM (inactive) | 39.9 µM (inactive) | 15.2 µM (inactive) | > 38.5 µM (inactive) | 1.77 µM (inactive) | 30.7 µM (inactive) | 8.55 µM (inactive) | 13.1 µM (inactive) |
| O=C1Nc2ccccc2C1(O)Cc1ccccn1 (centres undefined) | > 100 µM (inactive) | > 100 µM (inactive) | > 100 µM (inactive) | > 100 µM (inactive) | > 100 µM (inactive) | > 100 µM (inactive) | > 100 µM (inactive) | > 100 µM (inactive) | > 100 µM (inactive) | > 100 µM (inactive) | > 100 µM (inactive) | > 100 µM (inactive) | > 100 µM (inactive) | > 100 µM (inactive) | > 100 µM (inactive) | – | > 100 µM (inactive) | > 100 µM (inactive) |
| Cn1c(=O)cc(Nc2ccc(N)cc2)[nH]c1=O | > 100 µM (inactive) | > 100 µM (inactive) | > 100 µM (inactive) | > 100 µM (inactive) | > 100 µM (inactive) | > 100 µM (inactive) | > 100 µM (inactive) | > 100 µM (inactive) | > 100 µM (inactive) | > 100 µM (inactive) | > 100 µM (inactive) | > 100 µM (inactive) | > 100 µM (inactive) | > 100 µM (inactive) | > 100 µM (inactive) | > 100 µM (inactive) | – | > 100 µM (inactive) |
| CC(=O)O[C@H]1CC[C@@]2(C)C(=CC[C@@H]3[C@@H]2CC[C@](C)(c2nnc(C)o2)[C@H]3CC#N)C1 | > 100 µM (inactive) | > 100 µM (inactive) | – | > 100 µM (inactive) | > 100 µM (inactive) | > 100 µM (inactive) | > 100 µM (inactive) | > 100 µM (inactive) | > 100 µM (inactive) | > 100 µM (inactive) | > 100 µM (inactive) | > 100 µM (inactive) | > 100 µM (inactive) | > 100 µM (inactive) | > 100 µM (inactive) | > 100 µM (inactive) | 61.9 µM (inactive) | > 100 µM (inactive) |
| Cc1csc(NCc2ccc(Cl)cc2)n1 | 23.7 µM (inactive) | 40.5 µM (inactive) | – | 40.1 µM (inactive) | 44 µM (inactive) | > 100 µM (inactive) | > 100 µM (inactive) | 39.1 µM (inactive) | 47.1 µM (inactive) | 28.9 µM (inactive) | 37.8 µM (inactive) | 25.4 µM (inactive) | – | 37 µM (inactive) | 36.1 µM (inactive) | > 100 µM (inactive) | 33.1 µM (inactive) | 45.1 µM (inactive) |
| COc1ccccc1Cc1ccc(C2C=CC3(CC(=O)C=C3C)C(=O)C2)o1 (centres undefined) | 15.6 µM (inactive) | 33.9 µM (inactive) | 30.5 µM (inactive) | 20 µM (inactive) | 17.4 µM (inactive) | 50.8 µM (inactive) | – | – | 35.3 µM (inactive) | 16 µM (inactive) | 16.1 µM (inactive) | 17.4 µM (inactive) | 13.9 µM (inactive) | 31 µM (inactive) | 18.4 µM (inactive) | 18.6 µM (inactive) | 17.7 µM (inactive) | 17.9 µM (inactive) |
| Cc1ccc(C(=O)O)c(/C=C2\Cc3cc(C)cc(C)c3C2=O)c1 | 35.7 µM (inactive) | 78.2 µM (inactive) | 49.2 µM (inactive) | 81.1 µM (inactive) | 73.6 µM (inactive) | – | – | 35.7 µM (inactive) | > 100 µM (inactive) | > 100 µM (inactive) | 48.6 µM (inactive) | 67.3 µM (inactive) | 76 µM (inactive) | – | 46 µM (inactive) | 75.9 µM (inactive) | 38.6 µM (inactive) | 96.4 µM (inactive) |
| NC(=O)CO/N=C1/C(=C2/C(=O)Nc3ccccc32)Nc2ccccc21 | 1.49 µM (inactive) | 1.96 µM (inactive) | 1.11 µM (active) | > 100 µM (inactive) | 17.9 µM (inactive) | > 100 µM (inactive) | 0.522 µM (active) | 11.5 µM (inactive) | 2.12 µM (inactive) | > 100 µM (inactive) | > 100 µM (inactive) | 0.491 µM (active) | 5.87 µM (inactive) | > 100 µM (inactive) | 0.778 µM (active) | > 100 µM (inactive) | 1.96 µM (inactive) | > 100 µM (inactive) |
